{
  "source": "patent US10696946B2",
  "about": "“T-REG cell expansion” (The Board of Trustees of the University of Illinois, priority 2013, dated 2020)",
  "molecules": {"B1": {"name": "OX40L: tumor necrosis factor superfamily member with co-stimulatory function, binds OX40 (protein, UniProt P23510 1-183, looked up)", "Tumor necrosis factor ligand …": "MERVQPLEENVGNAARPRFERNKLLLVASVIQGLGLLLCFTYICLHFSALQVSHRYPRIQSIKVQFTEYKKEKGFILTSQKEDEIMKVQNNSVIINCDGFYLISLKGYFSQEVNISLHYQKDEEPLFQLKKVRSVNSLMVASLTYKDKVYLNVTTDNTSLDDFHVNGGELILIHQNPGEFCVL"}},
  "key": {"[1]": {"tested_on": "Treg cell proliferation", "test": "Pathway inhibitors on OX40L, JAG1 and IL-2-induced Treg proliferation (flow cytometry)", "assay_type": "cell-based, mouse", "details": "CD4+ T-cells from NOD mice pre-treated with inhibitor", "procedure": "FIG. 21. Role of NF-κB and STAT5 signaling pathways in OX40L-JAG1-IL-2 induced Treg proliferation and Foxp3 expression. (A) CD4+ T-cells from NOD mice were pre-treated with pharmacological inhibitors of indicated cell signaling pathways and treated with soluble OX40L-JAG1-IL-2. Effect of these pathway inhibitors on Treg cell proliferation was measured by flow cytometry analysis. (B) RT-qPCR analysis showing effect of inhibitors of NF-κB and STAT5 signaling pathways on Foxp3 mRNA expression (Values represent Mean±SEM, n=3, *p<0.05, **p<0.01, ***p<0.001 Vs control, ^#p<0.05, ^##p<0.01 Vs None-OX40L-JAG1-IL-2). (C) Western blot analysis showing effect of inhibitors of NF-κ B and STAT5 signaling pathways on Foxp3 protein expression. Western blot analysis of the time dependent effect of soluble OX40L-JAG1-IL-2 on (D) Foxp3 expression, (E) NF-κ B p65 phosphorylation and (F) STAT5 phosphorylation in CD4+ T-cells. […]\nCD4+ T-cells (1×10^6 cells/ml) were treated with soluble OX40 L, JAG1 and IL-2 as mentioned above. […] Foxp3, pp65 and pSTAT5 signal intensities were normalized to β-actin, total p65 and STAT5 signal intensities and expressed as fold change over respective controls."}, "[2]": {"tested_on": "Foxp3", "test": "Pathway inhibitors on OX40L, JAG1 and IL-2-induced Foxp3 expression (RT-qPCR, Western blot)", "assay_type": "cell-based, mouse", "details": "at 24 h", "procedure": "CD4+ T-cells (1×10^6 cells/ml) were treated with soluble OX40 L, JAG1 and IL-2 as mentioned above. In some experiments cells were pre-treated with inhibitors of Notch (GSI-R04929097, Selleckchem), NF-κ B (BAY-11-7082, Sigma-Aldrich) and STAT5 (CAS 285986-31-4, Calbiochem) signaling for 2 h and co-treated with soluble ligands for different time intervals. Cells were washed with PBS, and lysed in Laemmli buffer (Biorad) and resolved in 10% SDS-PAGE gels. Proteins were transferred to PVDF membranes (Biorad), blocked with 5% skimmed milk and incubated with primary anti-mouse Foxp3 (1:1000, ebioscience), anti-mouse phospho p65 (Ser536) and phospho STAT5 (Tyr694) (1:500, Cell Signaling Technology) antibodies. Blots were then washed, incubated with secondary anti-rabbit IgG-HRP and developed using ECL detection kit (Pierce Scientific). […] Foxp3, pp65 and pSTAT5 signal intensities were normalized to β-actin, total p65 and STAT5 signal intensities and expressed as fold change over respective controls.\nFor some experiments, resting and proliferating Tregs were sorted based on cell trace violet dilution. […] Gene expression values were calculated by comparative Δ Ct method after normalization to GAPDH internal control and expressed as fold change over respective controls. […] Data were analyzed using the R-package software. […]"}, "[3]": {"tested_on": "Foxp3+ Tregs", "test": "GM-BMDC / CD4+ T-cell co-culture, Treg proliferation by CFSE dilution (FACS)", "assay_type": "cell-based, mouse", "details": "for Treg proliferation: GM-BMDCs alone ~13.2±0.4%", "procedure": "Each in vitro experiment was conducted in triplicate with T-cells, SpDCs and GM-BMDCs pooled from 3 mice. GM-BMDCs (5×10^4) and CD11c^+ SpDCs were cultured with CD4^+, CD4^+CD25^− and CD4^+CD25^+ T-cells at a ratio of 1:2 for 5 days. For proliferation assays, T-cell subpopulations were labelled with CFSE at 10 μM according to manufacturer's instruction (Invitrogen, Carlsbad, Calif.) before co-culturing them with DCs. Some cultures were supplemented with IL-2 (10 U/ml) (R&D Systems), antiOX40L (up to 10 μg/ml) antibody, OX40 agonist (OX-86, 5-10 μg/ml), anti-Jagged-1 (10-20 μg/ml) antibody or anti-Notch3 (10-20 μg/ml) antibody. For blocking experiments with anti-OX40L or anti-Jagged-1 antibodies, GM-BMDCs were pre-treated with the indicated antibodies for 30 min at 37° C. and then used in co-culture with naive CD4^+ T-cells. For blocking experiments with anti-Notch3 antibody, CD4+ T-cells isolated from mouse splenocytes were first treated with anti-Notch3 antibody at two different concentrations (10 and 20 μg/ml) or with 20 μg/ml of an anti-Notch 1 antibody, incubated at 37° C. for 30 minutes and then co-cultured with GM-BMDCs/SpDCs for 5 days. Some co-cultures were supplemented with different concentrations of gamma-secretase inhibitors (GSI) S-2188 (5 and 10 μM) or R04929097 (200 nM-5 μM).\nFreshly isolated and ex vivo cultured cells were washed with PBS-BSA-EDTA or PBS containing 0.5% BSA. For surface staining, the cells were labelled with one of the following: specified FITC, PE, APC conjugated antibodies for 30 min, anti-CD4-eFluor-780, CD4-FITC (eBioscience), anti-CD25-PE, anti-CTLA4-PE, anti-CD39-PE, anti-Helios-PE, anti-TIGIT-PE or fixed, permeabilized, and stained with anti-, Anti-Ki67-PE, anti-Foxp3-APC and isotype controls antibodies (eBioscience) (1:100) in dark. […] Stained cells were washed three times and analyzed by Cyan flow cytometer (Beckman/Coulter) and data analysis was done using Summit v4.3 software."}, "[4]": {"tested_on": "Notch signaling", "test": "GSI-treated CD4+ T-cells from NOD mice co-cultured with G-BMDCs, proliferation by flow cytometry", "assay_type": "cell-based, mouse", "details": "indicated concentrations, 5 days with G-BMDCs", "procedure": "FIG. 13. […] (A) CD4+ T-cells from NOD mice were treated with γ-secretase inhibitor (GSI)-R042929097 at indicated concentrations and then co-cultured with G-BMDCs for 5 days. Extent of proliferation was measured by flow cytometry (n=3). (B) Notch3-OX40−, […], Notch3-OX40+, Notch3+OX40+ subsets of CD4^+CD25^+ Treg cells sorted out and co-cultured with G-BMDCs for 5 days and extent of proliferation was analyzed (n=2).\nBone marrow cells were cultured in complete RPMI medium containing 10% heat-inactivated FBS in the presence of 20 ng/ml GM-CSF for 3 days. On days 4 and 6, fresh medium containing 20 ng/ml GM-CSF was added. Non-adherent CD11c^+ DCs from eight day old cultures were enriched using anti-CD11c coated magnetic beads according to the manufacturer's directions (Miltenyi Biotech, Auburn, Calif.). Specific sub-populations of GM-BMDCs and CD4+CD25+ T-cells were sorted using a MoFlo flow cytometer (Beckman/Coulter, Ranch Cucamonga, Calif.) following staining with appropriate antibodies (OX40L, Jagged-1, CD4, CD25). To obtain GFP+ and GFP− cells, total CD4+ cells were first separated using CD4 microbeads (Miltenyi Biotech) and then the cells were sorted based on GFP expression using a MoFlo flow cytometer (Beckman/Coulter). […]"}, "[5]": {"tested_on": "NOD mice", "details": "cited from earlier work"}},
  "note": "Read-outs that look alike come from different tables or passages of the source.",
  "data": [
    {"molecule": "O=C(N/N=C/c1coc2ccccc2c1=O)c1cccnc1", "note": "[STAT5 inhibitor]", "values": [
      {"measurement": "OX40L, JAG1 and IL-2-induced Treg proliferation", "setting": "[1]", "value": "significantly blocked"},
      {"measurement": "OX40L, JAG1 and IL-2-induced Foxp3 expression", "setting": "[2]", "value": "only moderately inhibited"}
    ]},
    {"molecule": "Cc1ccc(S(=O)(=O)/C=C/C#N)cc1", "note": "[NF-κB inhibitor]", "values": [
      {"measurement": "OX40L, JAG1 and IL-2-induced Treg proliferation", "setting": "[1]", "value": "significantly blocked"},
      {"measurement": "OX40L, JAG1 and IL-2-induced Foxp3 expression", "setting": "[2]", "value": "significantly down regulated"}
    ]},
    {"molecule": "CC(C)(C(=O)NCC(F)(F)C(F)(F)F)C(=O)N[C@@H]1C(=O)Nc2ccccc2-c2ccccc21", "note": "[R04929097]", "values": [
      {"measurement": "Treg proliferation", "setting": "[3]; 250 nM", "value": "5.2±0.4", "unit": "%"},
      {"measurement": "Treg proliferation", "setting": "[3]; 5 μM", "value": "1.7±0.3", "unit": "%"},
      {"measurement": "GM-BMDC mediated Treg proliferation", "setting": "[3]; different concentrations (FIG. 8)", "value": "abrogated"},
      {"measurement": "inhibition of Notch signaling / Treg proliferation", "setting": "[4]", "value": "dose-dependent manner"}
    ]},
    {"molecule": "B1", "values": [
      {"measurement": "CD4+CD25+Foxp3+ Treg cells", "setting": "[5]; 6-week old NOD mice", "value": "increase"},
      {"measurement": "development of diabetes", "setting": "[5]; 6-week old NOD mice", "value": "protect"},
      {"measurement": "development of diabetes", "setting": "[5]; 12-week old NOD mice", "value": "accelerated diabetes development"}
    ]}
  ]
}
